Measurements: ChEMBL document CHEMBL1201862, “PubChem BioAssay data set” (2004)
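A five-concentration, 48-hour dose response in 96-well plates underlies each endpoint, interpolated linearly between surrounding concentrations. Abbreviation: GI50, concentration required for 50% inhibition of growth.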 Active and inactive are the calls of the source. No stated cut-off is given here; in the data, active = GI50 up to about 1.1 µM and inactive = higher.

What was measured:
Test in all cases: NCI tumour cell line growth inhibition, 48 h
[1] = tested on: 786-0
[2] = tested on: A498
[3] = tested on: A549
[4] = tested on: ACHN
[5] = tested on: BT-549
[6] = tested on: CAKI-1
[7] = tested on: CCRF-CEM
[8] = tested on: COLO 205
[9] = tested on: DU-145
[10] = tested on: EKVX
[11] = tested on: HCC 2998
[12] = tested on: HCT-116
[13] = tested on: HCT-15
[14] = tested on: HL-60
[15] = tested on: HOP-62
[16] = tested on: HOP-92
[17] = tested on: HT-29
[18] = tested on: Hs-578T
[19] = tested on: IGROV-1
[20] = tested on: K562
[21] = tested on: KM12
[22] = tested on: LOX IMVI
[23] = tested on: M14
[24] = tested on: MDA-MB-231
[25] = tested on: MDA-MB-435
[26] = tested on: MDA-N
[27] = tested on: MOLT-4
[28] = tested on: Malme-3M
[29] = tested on: NCI-H226
[30] = tested on: NCI-H23
[31] = tested on: NCI-H460
[32] = tested on: NCI-H522
[33] = tested on: NCI/ADR-RES
[34] = tested on: OVCAR-3
[35] = tested on: OVCAR-4
[36] = tested on: OVCAR-5
[37] = tested on: OVCAR-8
[38] = tested on: PC-3
[39] = tested on: RPMI-8226
[40] = tested on: RXF 393
[41] = tested on: SF-268
[42] = tested on: SF-295
[43] = tested on: SF-539
[44] = tested on: SK-MEL-28
[45] = tested on: SK-MEL-2
[46] = tested on: SK-MEL-5
[47] = tested on: SK-OV-3
[48] = tested on: SN12C
[49] = tested on: SNB-19
[50] = tested on: SNB-75
[51] = tested on: SR
[52] = tested on: SW-620
[53] = tested on: T47D
[54] = tested on: TK-10
[55] = tested on: U-251
[56] = tested on: UACC-257
[57] = tested on: UACC-62
[58] = tested on: UO-31
[59] = tested on: MCF7

Measured: GI50

O=c1oc2ccc3ccccc3c2cc1-c1nc2ccc([N+](=O)[O-])cc2o1
inactive: [1] 12.4 µM | [2] 38.5 µM | [3] 14.7 µM | [4] 8.57 µM | [5] > 44.5 µM | [6] > 44.7 µM | [7] 75.2 µM | [8] > 100 µM | [9] > 58.6 µM | [10] 31.3 µM | [11] > 100 µM | [12] 48.6 µM | [14] 34.7 µM | [15] 10.6 µM | [16] 33.6 µM | [17] > 42.7 µM | [18] 56.6 µM | [19] 28.4 µM | [20] > 62.1 µM | [21] > 59.2 µM | [22] 22.9 µM | [23] 25.5 µM | [24] 43.6 µM | [25] > 58.3 µM | [26] > 100 µM | [27] > 67.6 µM | [28] 59.4 µM | [29] > 51.2 µM | [30] 41.2 µM | [31] 36.1 µM | [32] 18.9 µM | [33] > 80.5 µM | [34] > 100 µM | [35] 22.5 µM | [36] > 100 µM | [37] > 100 µM | [38] > 100 µM | [39] > 51.1 µM | [40] 4.72 µM | [41] 20.5 µM | [42] 13.5 µM | [43] 10.4 µM | [44] > 100 µM | [45] > 64.9 µM | [46] 10.3 µM | [47] > 30.4 µM | [48] 97.5 µM | [49] 13.8 µM | [50] 14.8 µM | [51] > 71.4 µM | [52] > 100 µM | [53] 66.8 µM | [54] 28.3 µM | [55] 28.7 µM | [56] > 100 µM | [57] 59 µM | [58] > 49.2 µM
69 µM: [13]

Cn1c2ccccc2n2c(=O)c(-c3ccc(Cl)cc3)nnc12
inactive: [1] > 100 µM | [2] > 100 µM | [3] > 100 µM | [4] > 100 µM | [5] > 100 µM | [6] > 100 µM | [7] > 100 µM | [8] > 100 µM | [9] > 100 µM | [10] > 100 µM | [11] > 100 µM | [12] > 100 µM | [14] > 100 µM | [16] > 100 µM | [17] > 100 µM | [18] > 100 µM | [19] > 100 µM | [21] > 100 µM | [22] > 100 µM | [23] > 100 µM | [59] > 100 µM | [24] 51.2 µM | [25] > 100 µM | [26] > 100 µM | [27] > 100 µM | [28] > 100 µM | [29] > 100 µM | [30] > 100 µM | [31] > 100 µM | [32] > 100 µM | [33] > 100 µM | [35] 68.4 µM | [36] > 100 µM | [37] > 100 µM | [40] > 100 µM | [41] > 100 µM | [42] > 100 µM | [43] 43.3 µM | [44] > 100 µM | [45] 83.4 µM | [46] > 100 µM | [48] > 100 µM | [49] > 100 µM | [50] > 100 µM | [51] > 100 µM | [52] > 100 µM | [53] > 100 µM | [54] > 100 µM | [55] > 100 µM | [56] > 100 µM | [58] > 100 µM
> 100 µM: [13]
